According to US7745399B2, “Hsp70 peptide stimulating natural killer (NK) cell activity and uses thereof” (multimmune GmbH, priority 2000, dated 2010):
Like-named read-outs stand apart in the source and are kept apart here.

Legend:
NK cells [1] = assay: NK cell stimulation (3H thymidine uptake assays and 51Cr release assays); assay type: cell-based, human
Procedure: (§1) The proliferative capacity of NK and T cells against different Hsp70 peptides and Hsp70 protein (loc. sit) was determined in a standard ^3H thymidine uptake assay (22). Viable cells (5×10^4 cells/100 μl) were seeded in 96-well flat-bottom microtiter plates (Greiner Nuertingen, Germany) in supplemented RPMI-1640 medium containing 100 IU IL-2 and Hsp70 protein (10 μg/ml) or different amounts of Hsp70 peptides ranging from 0.02 up to 10 μg/ml. As an internal control the proliferation against IL-2 alone was measured in parallel. After a 24 or 48 hour incubation period the cells were pulsed with ^3H thymidine (1 μCi/well) and the total uptake was measured following an 18 hour incubation period at 37° C. in a liquid scintillation counter (Beckmann instruments, Munich, Germany).
The cytolytic activity of NK cells was monitored in a standard ^51Cr assay (23). Dilutions of the effector cells were incubated with ^51Cr-labeled (100 μCi of Na^51CrO4, NEN-Dupont, Boston, Mass.) tumor target cells (3×10^3 cells per well) in duplicates at a final volume of 200 μl RPMI-1640 medium supplemented with 10% FCS at 37° C. for 4 h in 96-well U-bottom plates (Greiner, Nuertingen, Germany). After the incubation period supernatants were collected and the radioactivity was counted in a γ-counter (Packard Instruments). The percentage of specific lysis was determined according to the equation: (experimental release−spontaneous release)/(maximum release−spontaneous release)×100. The percentage spontaneous release was always<15% for each target cell line.

NK cells [2] = details: Table II, complete proteins; cited from earlier work
NK cells [3] = assay: FACScan phenotypic characterization of stimulated NK cells; assay type: cell-based, human; details: NK cells stimulated with IL-2 plus peptide 2 μg/ml
Procedure: (§2) Cytolytic activity of NK cells stimulated with IL-2 alone or with IL-2 plus the 14-mer peptide TKD or with IL-2 plus the 8-mer peptide NLL. Cytolytic activity of NK cells either stimulated with low dose IL-2 (100 IU/ml) alone or with IL-2 plus the 14-mer peptide TKD (2 μg/ml) or with IL-2 plus the 8-mer peptide NLL (2 μg/ml) for 4 days. As target cells ^51Cr labeled CX+ (FIG. 2a) and CX− (FIG. 2b) tumor cells, that differ with respect to their capability to express Hsp70 on the plasma membrane, were used. The results are expressed as the percentage of specific lysis at varying E:T ratios ranging from 2:1 up to 40:1. The percentage spontaneous release for each tumor target cell line was less than 20%.
Directly fluorescein-conjugated mAb (CD3FITC/CD16/CD56^PE, Becton Dickinson, Heidelberg, Germany) were added to cell suspensions (0.1×10^6 cells), incubated for 20 min on ice, washed and analysed on a FACScan instrument (Becton Dickinson, Heidelberg, Germany). The percentage of positively stained cells was defined as the number of specifically stained, viable (propidium-iodide negative) cells minus the number of cells stained with an isotype matched control antibody on a FACScan instrument (Becton Dickinson, Heidelberg, Germany).

NK cells [4] = assay: 3H thymidine uptake assay, proliferative response of NK cells; assay type: cell-based, human; details: IL-2 100 IU/ml plus peptide 0.02 up to 8 μg/ml
Procedure: Comparison of the proliferative response of NK cells against Hsp70 peptides. NK cells were stimulated either with IL-2 (100 IU/ml) alone or with IL-2 plus peptides NLL (8-mer, FIG. 1a), TKD (14-mer, FIG. 1b) and GIPP (13 mer, FIG. 1c) at concentrations 0.02, 0.2, 2, 4 and 8 μg/ml. As a positive control NK cells were stimulated with rHsp70 protein at a concentration of 10 μg/ml. The proliferative response of NK cells was measured 72 h after peptide incubation and an 18 h incubation period with ^3H thymidine (1 μCi/ml). In FIG. 1e stimulation with TKD in a more refined scale between 0.1 and 3 μg is shown. […] Values are given as the means of four independent experiments+/−SD.
(§3) Briefly, monocyte depleted peripheral blood lymphocytes (PBL) were isolated from buffy coats of healthy human volunteers (Multhoff et al., 1995a). NK cells were purified by adherence selection following a modified protocol of Vujanovic (1993). T cells remain in the supernatant cell population.
as §1

CX− tumor cells = assay: 51Cr release assay (CML), cytolytic activity of stimulated NK cells against CX-; assay type: cell-based, human; details: NK cells stimulated 4 days with IL-2 100 IU/ml plus peptide 2 μg/ml
Procedure: as §2, with “The percentage spontaneous release for each tumor target cell line was less than 20%.” left out
(§4) The colon carcinoma sublines CX+ (>90% Hsp70 positive cells) and CX− (<20% Hsp70 positive cells) described in patent application EP-A2-084 300 5 and originally derived from CX2 colon carcinoma cells (Tumorzentrum Heidelberg, TZB 610005, Germany) that differ with respect to their capacity to express Hsp70 on their plasma membrane were cultured at 37° C., 5% CO2 in RPMI-1640 medium (Gibco, Eggenstein, Germany) supplemented with heat-inactivated 10% FCS (Gibco) and 2 mM L-glutamine and antibiotics (penicillin/streptomycin). […] All cell lines were free from mycoplasma contamination as determined by repeated testing using the 6-methylpurin desoxyribosid assay (Boehringer Mannheim, Germany).
(§5) The cytolytic activity of NK cells was monitored in a standard ^51Cr assay (23). […]

T cells = assay: 3H thymidine uptake assay, proliferative response of T cells; assay type: cell-based, human; details: peptides plus low dose IL-2 (100 IU/ml), any tested concentration
Procedure: as §3, §1

CX+ tumor cells = assay: 51Cr release assay (CML), cytolytic activity of stimulated NK cells against CX+; assay type: cell-based, human; details: NK cells stimulated 4 days with IL-2 100 IU/ml plus peptide 2 μg/ml, compared to IL-2 alone or IL-2 plus NLL
Procedure: as §2, with “The percentage spontaneous release for each tumor target cell line was less than 20%.” left out
as §4, §5

NK cells [5] = details: cited from earlier work
[6] = Table III, peptides only, 3H thymidine uptake and 51Cr release assays

Q: With “A A D N K S L G Q F N L D G (AADNKSLGQFNLDG) [DNAK, peptide, Dnak aa 447-460]” as the substance, how does the NK cell stimulation (NK cells [1]; [6]) read?
A: no

Q: With “Dank (complete protein): DnaK complete protein” as the substance, how does the NK cell stimulation (NK cells [2]) read?
A: no

Q: With “EGERAMTKDNNLLGRFELSG (EGERAMTKDNNLLGRFELSG) [Hsp70 (peptide) 441-463, 20 mer peptide of Hsp70]” as the substance, how does the NK cell stimulation (NK cells [1]; Table II, peptides) read?
A: yes

Q: Which NK cell stimulation (NK cells [1]; [6]) does the source give for “G E R A M T K D N N L L G R F E L S G (GERAMTKDNNLLGRFELSG) [Hsp70 445-463, peptide, Hsp70 aa 445-463]” here?
A: yes

Q: Which NK cell stimulation (NK cells [2]) does the source give for “Hsc70 (complete protein): Hsc70 complete protein” here?
A: no

Q: Which NK cell stimulation (NK cells [2]) does the source give for “Hsp70hom (complete protein): testis specific member of the Hsp70 family, complete protein” here?
A: yes

Q: Which CD3 positive cells (NK cells [3]) does the source give for NLLGRFEL here?
A: 8%

Q: What about the CD16/56 positive cells (NK cells [3]) of the same substance?
A: 80%

Q: What about the “proliferative capacity of NK cells” value (NK cells [4]) of the same substance?
A: did not stimulate

Q: And the NK cell stimulation (NK cells [1]; Table II, peptides)?
A: no

Q: What about the NK cell stimulation (NK cells [1]; [6]) of the same substance?
A: no

Q: And the “lysis of CX− tumor cells” value (CX− tumor cells)?
A: no significant differences

Q: And the T cell growth (T cells)?
A: none of the three peptides NLL, GIPP or TKD stimulates T cell growth

Q: With “NLLGRFELSGIPP [13-mer C-terminal extended peptide, Hsp70 aa 454-466]” as the substance, how does the “proliferative capacity of NK cells” value (NK cells [4]) read?
A: did not stimulate

Q: And the NK cell stimulation (NK cells [1]; Table II, peptides)?
A: no

Q: And the NK cell stimulation (NK cells [1]; [6])?
A: no

Q: And the T cell growth (T cells)?
A: none of the three peptides NLL, GIPP or TKD stimulates T cell growth

Q: For “T K D N N L L G K F E L T G (TKDNNLLGKFELTG) [Hsc70, peptide, Hsc70 aa 450-463]”, which NK cell stimulation (NK cells [1]; [6]) is on record?
A: no

Q: For “T K D N N L L G R F E L (TKDNNLLGRFEL) [TKD12, peptide, Hsp70 aa 450-461]”, which NK cell stimulation (NK cells [1]; [6]) is on record?
A: no

Q: For “T K D N N L L G R F E L S G (TKDNNLLGRFELSG) [14-mer peptide, Hsp70 aa 450-463]”, which CD3 positive cells (NK cells [3]) is on record?
A: 6%

Q: And the CD16/56 positive cells (NK cells [3])?
A: 79%

Q: And the “proliferative capacity of NK cells” value (NK cells [4])?
A: comparable immunostimulatory capacity like full length Hsp70 protein

Q: What about the NK cell stimulation (NK cells [1]; Table II, peptides) of the same substance?
A: yes

Q: What about the NK cell stimulation (NK cells [1]; [6]) of the same substance?
A: yes

Q: And the “lysis of CX− tumor cells” value (CX− tumor cells)?
A: no significant differences

Q: And the “lytic activity against Hsp70 expressing CX+ tumor cells” value (CX+ tumor cells)?
A: significantly enhanced lytic activity

Q: And the T cell growth (T cells)?
A: none of the three peptides NLL, GIPP or TKD stimulates T cell growth

Q: With “T K D N N L L G R F E L T G (TKDNNLLGRFELTG) [HOM, peptide, Hsp70hom aa 450-463]” as the substance, how does the NK cell stimulation (NK cells [1]; [6]) read?
A: low

Q: With “rHsp70: Human recombinant Hsp70 protein from StressGen (SPP-755)” as the substance, how does the optimal stimulatory dose (NK cells [5]; defined previously) read?
A: 10 µg/mL

Q: And the “proliferative response of human NK cells” value (NK cells [5]; low dose IL-2 (100 IU/ml) plus protein, compared to IL-2 only)?
A: increase the proliferative response
